Consider nine molecules from ChEMBL document CHEMBL4422678, “Design and synthesis of novel dual-cyclic RGD peptides for αvβ3 integrin targeting” (Bioorg Med Chem Lett, 2019).

Active and inactive are the calls of the source. The calls are words filed in the database; no cut-off is given here. *1 amine or outer side, *2 acyl side, *3 side chain or, on linkers, in order; H or OH if unused. Where a SMILES comes first, the peptide text is derived from it. [ ]: non-standard residue; d: D form. The star is where a group is joined. Dolaproine = CO[C@@H]([C@@H]1CCCN1)[C@@H](C)C(=O)O; X1 = O=C(CCCCC(=O)*)N1Cc2ccccc2C#Cc2ccccc21; Dil = CC[C@H](C)[C@H](NC)[C@@H](CC(=O)O)OC; PABC = O=C(OCc1ccc(N[*:1])cc1)[*:2]; X2 = C[C@@H](N*)[C@@H](O)c1ccccc1; NMeV = CN[C@H](C(=O)O)C(C)C

Assay [1] has as its target T1, Integrin alpha-V/beta-3 (Homo sapiens, UniProt P05106+P06756). The assay can be described thus: Binding affinity to alphaVbeta3 integrin in human SKOV3 cells assessed as inhibition of cell adhesion to fibrinogen measured after 2 hrs by MTT assay. It counts as cell-based. Background: Tetrazolium assays rely on reduction of a dye to a coloured formazan, in cell work by metabolically active cells.
Target sequence in this assay (P05106 27-788 limits assumed): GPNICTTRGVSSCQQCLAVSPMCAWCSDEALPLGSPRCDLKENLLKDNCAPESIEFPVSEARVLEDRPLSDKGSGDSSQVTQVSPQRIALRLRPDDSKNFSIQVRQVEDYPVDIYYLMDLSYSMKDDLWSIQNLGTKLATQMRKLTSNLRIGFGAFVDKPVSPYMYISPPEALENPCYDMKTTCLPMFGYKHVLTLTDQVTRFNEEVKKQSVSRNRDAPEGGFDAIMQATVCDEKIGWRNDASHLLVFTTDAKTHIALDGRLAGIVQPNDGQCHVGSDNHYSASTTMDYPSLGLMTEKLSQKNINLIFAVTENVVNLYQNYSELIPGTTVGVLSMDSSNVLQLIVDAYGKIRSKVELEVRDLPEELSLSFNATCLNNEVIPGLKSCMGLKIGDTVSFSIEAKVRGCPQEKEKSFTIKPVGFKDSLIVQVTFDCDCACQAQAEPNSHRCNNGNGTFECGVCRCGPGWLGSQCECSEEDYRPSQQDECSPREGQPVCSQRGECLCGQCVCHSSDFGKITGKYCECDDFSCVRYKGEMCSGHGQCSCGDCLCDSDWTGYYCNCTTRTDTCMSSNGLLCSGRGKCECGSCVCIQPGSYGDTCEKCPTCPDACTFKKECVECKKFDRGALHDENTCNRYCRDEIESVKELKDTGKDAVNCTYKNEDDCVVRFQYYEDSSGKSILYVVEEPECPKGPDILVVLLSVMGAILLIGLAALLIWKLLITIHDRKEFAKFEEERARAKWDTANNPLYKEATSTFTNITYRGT
Target sequence in this assay (P06756 31-889 limits assumed): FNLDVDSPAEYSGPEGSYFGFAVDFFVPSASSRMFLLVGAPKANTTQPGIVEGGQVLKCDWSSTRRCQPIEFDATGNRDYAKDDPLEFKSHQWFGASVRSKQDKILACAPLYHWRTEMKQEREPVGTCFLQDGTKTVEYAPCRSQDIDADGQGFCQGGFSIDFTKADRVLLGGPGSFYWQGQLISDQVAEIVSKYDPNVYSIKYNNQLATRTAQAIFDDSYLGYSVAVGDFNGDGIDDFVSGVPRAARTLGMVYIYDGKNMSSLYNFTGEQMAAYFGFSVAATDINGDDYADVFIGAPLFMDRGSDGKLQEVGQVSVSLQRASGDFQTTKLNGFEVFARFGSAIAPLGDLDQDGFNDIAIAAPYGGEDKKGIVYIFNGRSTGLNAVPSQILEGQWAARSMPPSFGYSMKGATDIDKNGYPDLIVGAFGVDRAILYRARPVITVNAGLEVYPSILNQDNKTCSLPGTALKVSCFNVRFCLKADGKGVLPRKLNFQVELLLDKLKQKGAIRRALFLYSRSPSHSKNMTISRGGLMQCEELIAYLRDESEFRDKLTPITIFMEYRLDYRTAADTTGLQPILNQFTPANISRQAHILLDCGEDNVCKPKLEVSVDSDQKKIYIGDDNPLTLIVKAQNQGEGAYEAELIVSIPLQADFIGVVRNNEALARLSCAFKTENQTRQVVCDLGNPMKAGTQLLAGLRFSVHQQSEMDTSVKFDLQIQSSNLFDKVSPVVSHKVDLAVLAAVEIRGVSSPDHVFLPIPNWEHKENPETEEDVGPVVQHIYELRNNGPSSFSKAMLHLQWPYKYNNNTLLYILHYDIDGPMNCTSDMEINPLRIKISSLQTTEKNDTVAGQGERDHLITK
Target sequence in this assay (P06756 891-1048 limits assumed): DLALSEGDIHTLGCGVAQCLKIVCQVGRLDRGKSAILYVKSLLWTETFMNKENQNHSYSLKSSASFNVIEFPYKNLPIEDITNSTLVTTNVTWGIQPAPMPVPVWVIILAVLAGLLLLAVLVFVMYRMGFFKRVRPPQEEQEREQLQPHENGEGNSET

For assay [2], the system named is MCF7. The assay can be described thus: Cytotoxicity against human MCF7 cells assessed as inhibition of cell growth after 72 hrs by CCK8 assay. It is filed as functional, cell-based. The following applies: MCF7, 72 h.
In assay [3] the test system is SK-OV-3. The assay can be described thus: Cytotoxicity against human SKOV3 cells assessed as inhibition of cell growth after 72 hrs by CCK8 assay. It is filed as functional, cell-based. The following applies: SK-OV-3, 72 h.
The test system of assay [4] is MCF7. Briefly: Cytotoxicity against human MCF7 cells assessed as inhibition of cell growth at 4 uM after 72 hrs by CCK8 assay. It counts as functional. The following applies: MCF7, 72 h, read-out: GI.
Assay [5] relates to SK-OV-3. Briefly: Cytotoxicity against human SKOV3 cells assessed as inhibition of cell growth at 0.004 uM after 72 hrs by CCK8 assay. It counts as functional. The following applies: SK-OV-3, 72 h, read-out: GI.
The test system of assay [6] is MCF7. Briefly: Cytotoxicity against human MCF7 cells assessed as inhibition of cell growth at 400 uM after 72 hrs by CCK8 assay. It counts as functional. The settings on record: MCF7, 72 h, read-out: GI.
For assay [7], the system named is MCF7. The assay can be described thus: Cytotoxicity against human MCF7 cells assessed as inhibition of cell growth at 0.0004 uM after 72 hrs by CCK8 assay. It counts as functional. The following applies: MCF7, 72 h, read-out: GI.
The subject of assay [8] is MCF7. Briefly: Cytotoxicity against human MCF7 cells assessed as inhibition of cell growth at 0.04 uM after 72 hrs by CCK8 assay. It is filed as functional. The settings on record: MCF7, 72 h, read-out: GI.
Assay [9] concerns SK-OV-3. Briefly: Cytotoxicity against human SKOV3 cells assessed as inhibition of cell growth at 4 uM after 72 hrs by CCK8 assay. It counts as functional. The following applies: SK-OV-3, 72 h, read-out: GI.
The subject of assay [10] is MCF7. Briefly: Cytotoxicity against human MCF7 cells assessed as inhibition of cell growth at 40 uM after 72 hrs by CCK8 assay. It counts as functional. The settings on record: MCF7, 72 h, read-out: GI.
Assay [11] deals with MCF7. Briefly: Cytotoxicity against human MCF7 cells assessed as inhibition of cell growth at 0.4 uM after 72 hrs by CCK8 assay. It counts as functional. The following applies: MCF7, 72 h, read-out: GI.
Assay [12] concerns SK-OV-3. Briefly: Cytotoxicity against human SKOV3 cells assessed as inhibition of cell growth at 0.04 uM after 72 hrs by CCK8 assay. It is filed as functional. The settings on record: SK-OV-3, 72 h, read-out: GI.
In assay [13] the test system is SK-OV-3. The assay can be described thus: Cytotoxicity against human SKOV3 cells assessed as inhibition of cell growth at 0.4 uM after 72 hrs by CCK8 assay. It is filed as functional. The settings on record: SK-OV-3, 72 h, read-out: GI.
Assay [14] deals with SK-OV-3. Briefly: Cytotoxicity against human SKOV3 cells assessed as inhibition of cell growth at 0.0004 uM after 72 hrs by CCK8 assay. It is filed as functional. The settings on record: SK-OV-3, 72 h, read-out: GI.
For assay [15], the system named is SK-OV-3. Briefly: Cytotoxicity against human SKOV3 cells assessed as inhibition of cell growth at 40 uM after 72 hrs by CCK8 assay. It is filed as functional. The settings on record: SK-OV-3, 72 h, read-out: GI.
The subject of assay [16] is MCF7. The assay can be described thus: Cytotoxicity against human MCF7 cells assessed as inhibition of cell growth at 0.004 uM after 72 hrs by CCK8 assay. It counts as functional. The following applies: MCF7, 72 h, read-out: GI.
The test system of assay [17] is SK-OV-3. The assay can be described thus: Cytotoxicity against human SKOV3 cells assessed as inhibition of cell growth at 400 uM after 72 hrs by CCK8 assay. It is filed as functional. The following applies: SK-OV-3, 72 h, read-out: GI.
Assay [18] deals with T1, Integrin alpha-V/beta-3. Briefly: Binding affinity to alphaVbeta3 integrin in human SKOV3 cells at 200 uM incubated for 3 hrs followed by compound washout prior to DBCO-Cy5 addition and measured after 1 hr by DAPI staining based fluorescence microscopic analysis. It counts as cell-based.

In the case of `[N-]=[N+]=NCCCC(=O)NCCCC[C@@H]1NC(=O)[C@H](Cc2ccccc2)NC(=O)[C@H](CC(=O)O)NC(=O)CNC(=O)[C@H](CCCN=C(N)N)NC1=O`, the IC50 in assay [1] turned out to be 110 µM.
As to `CC[C@H](C)[C@@H]([C@@H](CC(=O)N1CCC[C@H]1[C@H](OC)[C@@H](C)C(=O)N[C@H](C)[C@@H](O)c1ccccc1)OC)N(C)C(=O)[C@@H](NC(=O)[C@H](C(C)C)N(C)C(=O)OCc1ccc(NC(=O)[C@H](CCCNC(=N)N)NC(=O)[C@@H](NC(=O)CCCCC(=O)N2Cc3ccccc3-c3nnn(CCCC(=O)N[C@@H](CCCNC(=N)N)C(=O)NCC(=O)N[C@@H](CC(=O)O)C(=O)N[C@@H](CCCNC(=N)N)C(=O)NCC(=O)N[C@@H](CC(=O)N[C@H]4CSSC[C@@H](C(=O)O)NC(=O)[C@H](CC(=O)O)NC(=O)CNC(=O)[C@H](CCCNC(=N)N)NC(=O)[C@H](CC(=O)O)NC(=O)CNC(=O)[C@H](CCCNC(=N)N)NC4=O)C(=O)NCCCC[C@@H]4NC(=O)[C@H](Cc5ccccc5)NC(=O)[C@H](CC(=O)O)NC(=O)CNC(=O)[C@H](CCCN=C(N)N)NC4=O)c3-c3ccccc32)C(C)C)cc1)C(C)C`, the IC50 in assay [2] came to 19.9 µM; in [3], 0.44 µM.
Taken in the same sequence, the figures for `CC[C@H](C)[C@@H]([C@@H](CC(=O)N1CCC[C@H]1[C@H](OC)[C@@H](C)C(=O)N[C@H](C)[C@@H](O)c1ccccc1)OC)N(C)C(=O)[C@@H](NC(=O)[C@H](C(C)C)N(C)C(=O)OCc1ccc(NC(=O)[C@H](CCCNC(=N)N)NC(=O)[C@@H](NC(=O)CCCCC(=O)N2Cc3ccccc3-c3nnn(CCCC(=O)NCCCC[C@@H]4NC(=O)[C@H](Cc5ccccc5)NC(=O)[C@H](CC(=O)O)NC(=O)CNC(=O)[C@H](CCCN=C(N)N)NC4=O)c3-c3ccccc32)C(C)C)cc1)C(C)C` were 93.2 µM and 4.5 µM.
In the case of `[N-]=[N+]=NCCCC(=O)N[C@@H](CCCNC(=N)N)C(=O)NCC(=O)N[C@@H](CC(=O)O)C(=O)N[C@@H](CCCNC(=N)N)C(=O)NCC(=O)N[C@@H](CC(=O)NCCCC[C@@H]1NC(=O)[C@H](Cc2ccccc2)NC(=O)[C@H](CC(=O)O)NC(=O)CNC(=O)[C@H](CCCN=C(N)N)NC1=O)C(=O)NCCCC[C@@H]1NC(=O)[C@H](Cc2ccccc2)NC(=O)[C@H](CC(=O)O)NC(=O)CNC(=O)[C@H](CCCN=C(N)N)NC1=O`, the IC50 in assay [1] turned out to be 8.9 µM.
As to `CC[C@H](C)[C@@H]([C@@H](CC(=O)N1CCC[C@H]1[C@H](OC)[C@@H](C)C(=O)N[C@H](C)[C@@H](O)c1ccccc1)OC)N(C)C(=O)[C@@H](NC(=O)[C@H](C(C)C)N(C)C(=O)OCc1ccc(NC(=O)[C@H](CCCNC(=N)N)NC(=O)[C@@H](NC(=O)CCCCC(=O)N2Cc3ccccc3C#Cc3ccccc32)C(C)C)cc1)C(C)C` (X1-VR[PABC][NMeV]V[Dil][Dolaproine]-X2), the IC50 in [2] amounted to 22.3 µM; in assay [3], 1 µM.
Take `[N-]=[N+]=NCCCC(=O)N[C@@H](CCCNC(=N)N)C(=O)NCC(=O)N[C@@H](CC(=O)N[C@H]1CSSC[C@@H](C(=O)O)NC(=O)[C@H](CC(=O)O)NC(=O)CNC(=O)[C@H](CCCNC(=N)N)NC(=O)[C@H](CC(=O)O)NC(=O)CNC(=O)[C@H](CCCNC(=N)N)NC1=O)C(=O)N[C@@H](CCCNC(=N)N)C(=O)NCC(=O)N[C@@H](CC(=O)O)C(=O)NCCCC[C@@H]1NC(=O)[C@H](Cc2ccccc2)NC(=O)[C@H](CC(=O)O)NC(=O)CNC(=O)[C@H](CCCN=C(N)N)NC1=O`: the inhibition of growth at 4 µM was 22.6% in assay [4] and 23.9% in assay [9]. The inhibition of growth at 0.004 µM worked out at 19.5% in assay [5] and 13.4% in [16]. Further, the inhibition of growth at 400 µM in [6] stood at 30.2%; in [17], 28.8%. Moreover, the inhibition of growth at 0.0004 µM in [7] was determined as 18.3%; in assay [14], 13.1%. In addition, the IC50 in assay [1] turned out to be 2.13 µM. In addition, the inhibition of growth at 0.04 µM in [8] was found to be 17.5%; in assay [12], 14.4%. Further, the inhibition of growth at 40 µM in [10] came to 23.8%; in assay [15] it was 28.1%. The inhibition of growth at 0.4 µM in [11] worked out at 17.6%; in assay [13], 15.4%.
Regarding `[N-]=[N+]=NCCCC(=O)N[C@@H](CCCNC(=N)N)C(=O)NCC(=O)N[C@@H](CC(=O)O)C(=O)N[C@@H](CCCNC(=N)N)C(=O)NCC(=O)N[C@@H](CC(=O)N[C@H]1CSSC[C@@H](C(=O)O)NC(=O)[C@H](CC(=O)O)NC(=O)CNC(=O)[C@H](CCCNC(=N)N)NC(=O)[C@H](CC(=O)O)NC(=O)CNC(=O)[C@H](CCCNC(=N)N)NC1=O)C(=O)NCCCC[C@@H]1NC(=O)[C@H](Cc2ccccc2)NC(=O)[C@H](CC(=O)O)NC(=O)CNC(=O)[C@H](CCCN=C(N)N)NC1=O`, the outcome in assay [18] was Active. Also, the IC50 in assay [1] was found to be 4.2 µM.
Consider `[N-]=[N+]=NCCCC(=O)N[C@@H](CCCNC(=N)N)C(=O)NCC(=O)N[C@@H](CC(=O)O)C(=O)N[C@@H](CCCNC(=N)N)C(=O)NCC(=O)N[C@@H](CC(=O)O)C(=O)NCCCC[C@@H]1NC(=O)[C@H](Cc2ccccc2)NC(=O)[C@H](CC(=O)O)NC(=O)CNC(=O)[C@H](CCCN=C(N)N)NC1=O`, for which the IC50 in [1] is 25.1 µM.
Still for that read-out and setting: as for `[N-]=[N+]=NCCCC(=O)N[C@@H](CCCNC(=N)N)C(=O)NCC(=O)N[C@@H](CC(=O)N[C@H]1CSSC[C@@H](C(=O)O)NC(=O)[C@H](CC(=O)O)NC(=O)CNC(=O)[C@H](CCCNC(=N)N)NC(=O)[C@H](CC(=O)O)NC(=O)CNC(=O)[C@H](CCCNC(=N)N)NC1=O)C(=O)N[C@@H](CCCNC(=N)N)C(=O)NCC(=O)N[C@@H](CC(=O)O)C(=O)N[C@@H](CCCNC(=N)N)C(=O)NCC(=O)N[C@@H](CC(=O)O)C(=O)NCCCC[C@@H]1NC(=O)[C@H](Cc2ccccc2)NC(=O)[C@H](CC(=O)O)NC(=O)CNC(=O)[C@H](CCCN=C(N)N)NC1=O`, the figure is 24.5 µM.

As usually defined, the IC50 is the concentration that inhibits the measured activity by half.
